Key:
[1] = system: normal NK cells expanded with K562-aAPC; test: percent inhibition of viability; higher = more inhibition; details: 72 h, IL-2 2.5 ng/mL
Protocol: (§1)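 Drug sensitivity and resistance testing on K562-aAPC-expanded normal NK cells: 5 concentrations (10-fold steps over a 10,000-fold range), 72 h at 37 °C, viability by CellTiter-Glo normalised to DMSO and benzethonium chloride controls; DSS from the fitted curve.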

[2] = system: DERL-7 (IL-2 2.5 ng/mL); test: as above; details: 72 h
[3] = system: IMC-1 (IL-2 20 ng/mL); test: as above; details: 72 h
[4] = system: KAI3 (IL-2 2.5 ng/mL); test: as above; details: 72 h
[5] = system: KHYG-1 (IL-2 2.5 ng/mL); test: as above; details: 72 h
[6] = system: NK-92 (IL-2 2.5 ng/mL); test: as above; details: 72 h
[7] = system: NK-YS (IL-2 2.5 ng/mL); test: as above; details: 72 h
[8] = system: NKL (IL-2 2.5 ng/mL); test: as above; details: 72 h
[9] = system: SNK-6 (IL-2 2.5 ng/mL); test: as above; details: 72 h
[10] = system: YT (IL-2 2.5 ng/mL); test: as above; details: 72 h
[11] = system: normal primary NK cells, pool 1 (3 donors) (IL-2 2.5 ng/mL); test: as above; details: 72 h
[12] = system: normal primary NK cells, pool 1 (3 donors), resting (IL-2 0 ng/mL); test: as above; details: 72 h
[13] = system: normal primary NK cells, pool 2 (3 donors) (IL-2 2.5 ng/mL); test: as above; details: 72 h
[14] = system: normal primary NK cells, pool 3 (3 donors) (IL-2 2.5 ng/mL); test: as above; details: 72 h
[15] = system: normal NK cells expanded with K562-aAPC; test: drug sensitivity score (DSS) (DSS units); higher = more sensitive; extreme values may be limits of the assay; details: 72 h; IL-2 2.5 ng/mL
Protocol: as §1

[16] = system: DERL-7 (IL-2 2.5 ng/mL); test: as above; details: 72 h
[17] = system: IMC-1 (IL-2 20 ng/mL); test: as above; details: 72 h
[18] = system: KAI3 (IL-2 2.5 ng/mL); test: as above; details: 72 h
[19] = system: KHYG-1 (IL-2 2.5 ng/mL); test: as above; details: 72 h
[20] = system: NK-92 (IL-2 2.5 ng/mL); test: as above; details: 72 h
[21] = system: NK-YS (IL-2 2.5 ng/mL); test: as above; details: 72 h
[22] = system: NKL (IL-2 2.5 ng/mL); test: as above; details: 72 h
[23] = system: SNK-6 (IL-2 2.5 ng/mL); test: as above; details: 72 h
[24] = system: YT (IL-2 2.5 ng/mL); test: as above; details: 72 h
[25] = system: normal primary NK cells, pool 1 (3 donors) (IL-2 2.5 ng/mL); test: as above; details: 72 h
[26] = system: normal primary NK cells, pool 1 (3 donors), resting (IL-2 0 ng/mL); test: as above; details: 72 h
[27] = system: normal primary NK cells, pool 2 (3 donors) (IL-2 2.5 ng/mL); test: as above; details: 72 h
[28] = system: normal primary NK cells, pool 3 (3 donors) (IL-2 2.5 ng/mL); test: as above; details: 72 h

CCCc1cc(C)[nH]c(=O)c1CNC(=O)c1cc(-c2ccnc(N3CCN(C)CC3)c2)cc2c1cnn2C(C)C [GSK343] (max concentration tested 10000 nM)
percent inhibition of viability [%]
Details | 1 nM | 10 nM | 100 nM | 1000 nM | 10000 nM
[1] | -1.65 | -5.79 | -7.46 | -5.85 | 99.2
[2] | 3.94 | -4.82 | 3.13 | 8.76 | 96.6
[3] | -6.79 | -3.69 | -6.5 | -9.82 | 99.4
[4] | -6.07 | -1.68 | -2.65 | 8.26 | 99.1
[5] | 0.04 | 1.72 | -6.82 | 3.86 | 99.8
[6] | -15.4 | -9.54 | -9.12 | -0.4 | 98.1
[7] | -5.74 | -3.63 | -4.33 | 4.65 | 101
[8] | -9.45 | -14.8 | -10.7 | -3.16 | 99.2
[9] | -12.3 | 5.94 | -7.63 | -6.91 | 99.4
[10] | -0.53 | -1.05 | -6.88 | 3.69 | 99
[11] | 2.11 | -6.04 | -3.32 | 7.91 | 93.1
[12] | -0.38 | -4.24 | -14.9 | 10.5 | 92.6
[13] | -8.31 | -4.46 | -6.41 | -0.99 | -0.1
[14] | -4.17 | -3.24 | -2 | -6.83 | 59.2

Details | drug sensitivity score
[15] | 5.07
[16] | 6.76
[17] | 4.86
[18] | 6.8
[19] | 6.07
[20] | 5.45
[21] | 6.26
[22] | 5.27
[23] | 5.02
[24] | 6
[25] | 6.41
[26] | 6.86
[27] | 0
[28] | 2.74

Cc1cccc(-c2nn3c(c2-c2ccnc4ccc(C(N)=O)cc24)CCC3)n1 [Galunisertib] (max concentration tested 1000 nM)
percent inhibition of viability [%]
Details | 0.1 nM | 1 nM | 10 nM | 100 nM | 1000 nM
[1] | -0.13 | -4.95 | -1.88 | -4.21 | -16.8
[2] | 5.62 | 1.68 | 4.85 | -1.77 | 1.92
[3] | -7.13 | -0.55 | -5.27 | -8.99 | -4.14
[4] | -4.52 | 0.48 | -2.74 | -1.09 | -2.65
[5] | -4.42 | -0.98 | -7.17 | 0.3 | -1.95
[6] | 6.42 | -19.6 | -7 | -11.1 | -5.09
[7] | -4.82 | -4.05 | -5.75 | -3.29 | -5.06
[8] | -14.8 | -16.4 | -19.5 | -16.8 | -23.6
[9] | 4.83 | 20.7 | 0 | -0.11 | -19.9
[10] | -3.06 | -2.63 | -3.58 | 1.78 | 1.58
[11] | 0.38 | -7.01 | -9.1 | -2.92 | -15.2
[12] | -3.02 | -1.34 | -8.83 | 11.9 | 15
[13] | -8.56 | -7.94 | -11.5 | -15 | -20.2
[14] | -11 | -5.65 | -10 | -14.2 | -19.7

Details | drug sensitivity score
[15] | 0
[16] | 0
[17] | 0
[18] | 0
[19] | 0
[20] | 0
[21] | 0
[22] | 0
[23] | 0
[24] | 0
[25] | 0
[26] | 1.02
[27] | 0
[28] | 0

NC(=O)NO [Hydroxyurea] (max concentration tested 100000 nM)
percent inhibition of viability [%]
Details | 10 nM | 100 nM | 1000 nM | 10000 nM | 100000 nM
[1] | 2.1 | -5.76 | -2.1 | 8.98 | 49.1
[2] | 2.03 | -0.08 | 8.03 | -3.4 | 12.6
[3] | -6.14 | -2.56 | -2.39 | -0.1 | 9.95
[4] | 24.5 | 13.1 | 12.7 | 20.9 | 51.8
[5] | -10.9 | -7.34 | -3.16 | 8.85 | 17.1
[6] | 6.26 | 6.63 | 2.07 | 31.3 | 48.5
[7] | -0.41 | -2.69 | -1.46 | 3.98 | 29.3
[8] | 4.79 | -0.36 | 15 | 24.1 | 48.3
[9] | 15.2 | -7.82 | -13.1 | -12.9 | 1.36
[10] | -10.8 | -9.74 | -3.92 | 0.46 | 14.2
[11] | -2.1 | 5.26 | 3.61 | -8.28 | 4.04
[12] | 15.8 | 15.8 | 15.4 | 15.8 | 15.6
[13] | 1.52 | 0.13 | 10.8 | 4.35 | 13.4
[14] | 6.75 | 1.29 | 8.4 | -5.82 | 7.32

Details | drug sensitivity score
[15] | 4.07
[16] | 0.03
[17] | 0
[18] | 8.49
[19] | 1.16
[20] | 6.31
[21] | 1.89
[22] | 6.01
[23] | 0
[24] | 0.2
[25] | 0
[26] | 4.95
[27] | 0.1
[28] | 0

O=P1(NCCCl)OCCCN1CCCl (stereo not given) [Ifosfamide] (max concentration tested 10000 nM)
percent inhibition of viability [%]
Details | 1 nM | 10 nM | 100 nM | 1000 nM | 10000 nM
[1] | -2.46 | -7.15 | -2.89 | -5.04 | -1.58
[2] | -5.51 | -7.54 | -1.33 | -3.22 | -6.83
[3] | -7.45 | -2.99 | -8.91 | -4.46 | -9.5
[4] | -7.61 | -11.2 | -10.2 | -6.62 | -0.66
[5] | -2.87 | -4.29 | -7.54 | -5.28 | -6.85
[6] | -16.3 | -6.46 | -7.42 | -21.1 | -17.7
[7] | -1.93 | -4.42 | -4.13 | 1.8 | -4.59
[8] | -15.9 | -21.4 | -20.8 | -20.4 | -25.2
[9] | 9.44 | 6.95 | -7.05 | -1.13 | -14.1
[10] | -4.47 | -6.22 | -6.55 | -4.33 | -5.88
[11] | -11.2 | -7.35 | -2.79 | -2.71 | 1.61
[12] | -18.3 | -6.52 | 1.44 | -5.18 | 12.7
[13] | -7.91 | -9.22 | -9.46 | -8.83 | -4.62
[14] | -13.4 | -7.36 | -10.1 | -8.46 | -1.46

Details | drug sensitivity score
[15] | 0
[16] | 0
[17] | 0
[18] | 0
[19] | 0
[20] | 0
[21] | 0
[22] | 0
[23] | 0
[24] | 0
[25] | 0
[26] | 0.02
[27] | 0
[28] | 0

CC(C)Cn1cnc2c(N)nc3ccccc3c21 [Imiquimod] (max concentration tested 2500 nM)
percent inhibition of viability [%]
Details | 0.25 nM | 2.5 nM | 25 nM | 250 nM | 2500 nM
[1] | -2.97 | -4.12 | -1.05 | 14.8 | 11.3
[2] | -5 | 4.44 | -3.41 | 4.83 | -1.82
[3] | 2.11 | -3.32 | 4.26 | 10.8 | 22.2
[4] | -2.07 | -8.41 | 6.25 | 5.37 | 17.9
[5] | -3 | -3.08 | 2.45 | 6.32 | 13.8
[6] | -7.9 | -11.3 | -5.41 | 5.55 | 12.3
[7] | -0.76 | -2.23 | 5.71 | 6 | 16.1
[8] | -2.54 | -14.7 | -1.93 | 3.67 | 1.08
[9] | 10.3 | -13.6 | 12.2 | 44 | 57.8
[10] | -4.4 | -3 | 5.75 | 3.31 | 4.52
[11] | -14.4 | 5.91 | -7.15 | -9.14 | 5.82
[12] | -4.66 | 7.46 | -14.7 | -14.5 | -19.1
[13] | -8 | -6.73 | -8.32 | -4.68 | 20.8
[14] | -14.7 | -9.92 | -6.17 | -5.82 | 6.93

Details | drug sensitivity score
[15] | 1.27
[16] | 0
[17] | 1.48
[18] | 0.57
[19] | 0.26
[20] | 0.3
[21] | 0.38
[22] | 0
[23] | 9.47
[24] | 0
[25] | 0
[26] | 0
[27] | 0.45
[28] | 0

— the supplement of paper PMC5908809
